Source: patent publication US6617282B2, “Processes for preparing 3-phenyl-2,4(1H, 3H)-pyrimidinediones” (Ishihara Sangyo Kaisha, Ltd., priority 2001, dated 2003)

Assays:
Assay in all cases: PRE emergent soil treatment, weed control
Assay type in all cases: in vivo
Conditions in all cases: applied to soil, 250 g/ha
[1] = test system: lambsquarters (Chenopodium album)
Description: (§1) Compound B was applied to soil as a PRE emergent treatment at the rate of 250 g/ha. The broadleaf weed species velvetleaf (Abutilon theophrasti), redroot pigweed (Amaranthus retroflexus) and lambsquarters (Chenopodium album) were all 100% controlled by this treatment.

[2] = test system: velvetleaf (Abutilon theophrasti)
Description: as §1

[3] = test system: redroot pigweed (Amaranthus retroflexus)
Description: as §1

Measured: controlled (weed control)

CC(C)=Nn1c(C(F)(F)F)cc(=O)n(-c2cc(Oc3ccccc3[N+](=O)[O-])c(Cl)cc2F)c1=O [Compound B, 3-[4-hloro-2-fluoro-5-(2-nitrophenoxy)phenyl]-1-[(1-methylethylidene)amino]-6-(trifluoromethyl)-2,4(1H,3H)-pyrimidinedione]
100%: all assays above
